What was measured:
CDK12/CycK = CDK12/CycK (Homo sapiens, UniProt Q9NYV4); experiment: CDK12/CycK high ATP kinase assay (TR-FRET, 2 mM ATP); format: biochemical; conditions: 2 mM ATP (high ATP); median; read-out: CDK12/CyclinK, 2 mM ATP (high ATP), IC50-[mol/l] (median)
In short: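 His-tagged human CDK12/CycK (~0.75 nM) pre-incubated 15 min with compound, then 60 min at 22 °C with 2 mM ATP and 1 µM biotinylated peptide (HEPES pH 7.5, 20 mM MgCl2). EDTA stop; phospho-Ser62 antibody/Eu anti-rabbit and streptavidin-XL665 TR-FRET, 665/620 nm ratio normalised to give IC50.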

[1] = system: BRCA1 mRNA expression in MDA-MB-231 cells; experiment: qRT-PCR assay: BRCA1 mRNA expression in MDA-MB-231; format: cell-based, human; conditions: Homo sapiens, MDA-MB-231, Inhibition of BRCA1 mRNA expression in MDA-MB-231 cells; median; read-out: RTqPCR-MDA-MB-231, IC50, BRCA1 (median)
In short: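 MDA-MB-231 cells, 200,000/well, treated 24 h after plating with continuous 24 h compound exposure. RNA extracted, 600 ng reverse-transcribed, BRCA1 measured by RT-qPCR normalized to GAPDH.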

[2] = system: CAL-120, human breast adenocarcinoma cells; experiment: Proliferation assay CAL-120 (crystal violet, 4 days); format: cell-based; conditions: Homo sapiens, CAL-120, 96 h, CAL-120 cells, median, read-out: Prolif-CAL-120, IC50-[mol/l] (median)
In short: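 CAL-120 or MDA-MB-231 cells grown 24 h, then exposed 4 days to compound (0.01–10 micromol/L, 0.1% DMSO). Crystal violet staining, absorbance at 595 nm, normalised to a zero-point plate (0%) and untreated cells (100%); IC50 by 4-parameter fit.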

CDK12/CycK, sequence (Q9NYV4 with tags, fused parts or gaps): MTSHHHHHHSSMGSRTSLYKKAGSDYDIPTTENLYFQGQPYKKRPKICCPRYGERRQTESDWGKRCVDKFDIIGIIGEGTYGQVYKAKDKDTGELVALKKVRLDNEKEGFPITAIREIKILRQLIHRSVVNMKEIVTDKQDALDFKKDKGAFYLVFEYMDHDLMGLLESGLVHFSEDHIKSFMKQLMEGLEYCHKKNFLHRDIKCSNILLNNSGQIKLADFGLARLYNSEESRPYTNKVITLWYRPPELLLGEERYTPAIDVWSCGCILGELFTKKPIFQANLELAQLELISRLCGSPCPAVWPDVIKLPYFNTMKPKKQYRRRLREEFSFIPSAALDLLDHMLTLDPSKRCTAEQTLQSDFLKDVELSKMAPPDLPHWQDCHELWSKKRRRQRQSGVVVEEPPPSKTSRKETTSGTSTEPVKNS
CDK12/CycK, sequence (O75909 1-300 partner limits assumed): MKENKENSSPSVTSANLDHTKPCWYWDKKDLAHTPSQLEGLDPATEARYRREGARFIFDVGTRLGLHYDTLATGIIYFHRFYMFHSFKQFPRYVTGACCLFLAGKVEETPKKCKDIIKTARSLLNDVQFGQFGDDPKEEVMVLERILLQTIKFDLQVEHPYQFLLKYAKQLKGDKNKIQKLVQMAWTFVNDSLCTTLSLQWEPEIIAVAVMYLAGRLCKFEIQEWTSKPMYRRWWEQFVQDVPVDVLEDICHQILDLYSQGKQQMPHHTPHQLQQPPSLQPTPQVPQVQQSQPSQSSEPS

Row | SMILES | IC50 (CDK12/CycK) [nM] | IC50 [1] [nM] | IC50 [2] [nM]
1 | Clc1ccc(-c2nnc(CNc3nc(N4CCOCC4)nc4c(Br)cnn34)[nH]2)cc1 [Example 45, 8-bromo-N-{[5-(4-chlorophenyl)-4H-1,2,4-triazol-3-yl]methyl}-2-(morpholin-4-yl)pyrazolo[1,5-a][1,3,5]triazin-4-amine] | 2200 | 99 | 89.1
2 | FC(F)n1cc(-c2cnn3c(NCc4nc5cc(Cl)c(Cl)cc5[nH]4)nc(N4CCOCC4)nc23)cn1 [Example 423, N-[(5,6-dichloro-1H-benzimidazol-2-yl)methyl]-8-[1-(difluoromethyl)-1H-pyrazol-4-yl]-2-(morpholin-4-yl)pyrazolo[1,5-a][1,3,5]triazin-4-amine] | > 12900 | 6.2 | 12.3
3 | Fc1ccc2[nH]c(CNc3nc(N4CCOCC4)nc4c(-c5ccnnc5)cnn34)nc2c1F [Example 417, N-[(4,5-difluoro-1H-benzimidazol-2-yl)methyl]-2-(morpholin-4-yl)-8-(pyridazin-4-yl)pyrazolo[1,5-a][1,3,5]triazin-4-amine] | > 7750 | 14.6 | 9.17
4 | COc1cccc(-c2nnc(CNc3nc(N4CCOCC4)nc4c(Br)cnn34)[nH]2)c1 [Example 50, 8-bromo-N-{[5-(3-methoxyphenyl)-4H-1,2,4-triazol-3-yl]methyl}-2-(morpholin-4-yl)pyrazolo[1,5-a][1,3,5]triazin-4-amine] | 2800 | 18.2 | 29.5
5 | Fc1ccc(-c2nnc(CNc3nc(N4CCOCC4)nc4c(Br)cnn34)[nH]2)c(F)c1 [Example 41, 8-bromo-N-{[5-(2,4-difluorophenyl)-4H-1,2,4-triazol-3-yl]methyl}-2-(morpholin-4-yl)pyrazolo[1,5-a][1,3,5]triazin-4-amine] | > 5710 | 3670 | 11800
6 | Brc1cnn2c(NCc3nc4ccccc4[nH]3)nc(N3CCCCC3)nc12 [Example 46, N-[(1H-benzimidazol-2-yl)methyl]-8-bromo-2-(piperidin-1-yl)pyrazolo[1,5-a][1,3,5]triazin-4-amine] | 3330 | 12.5 | 238
7 | CCc1cnn2c(NCc3nc4c(OC)cccc4[nH]3)nc(N3CCOCC3)nc12 [Example 433, 8-ethyl-N-[(4-methoxy-1H-benzimidazol-2-yl)methyl]-2-(morpholin-4-yl)pyrazolo[1,5-a][1,3,5]triazin-4-amine] | 2700 | 10.6 | 13.1
8 | COc1ccccc1-c1nnc(CNc2nc(N3CCN(C)CC3)nc3c(C4CC4(F)F)cnn23)[nH]1 (stereo not drawn) [Example 430, 8-(2,2-difluorocyclopropyl)-N-{[5-(2-methoxyphenyl)-4H-1,2,4-triazol-3-yl]methyl}-2-(4-methylpiperazin-1-yl)pyrazolo[1,5-a][1,3,5]triazin-4-amine] | > 20000 | 10 | 38.6
9 | N#Cc1cnn2c(NCc3nc4ccccc4[nH]3)nc(N3CCOCC3)nc12 [Example 43, 4-{[(1H-benzimidazol-2-yl)methyl]amino}-2-(morpholin-4-yl)pyrazolo[1,5-a][1,3,5]triazine-8-carbonitrile] | > 16800 | 69.9 | 131
10 | Brc1cnn2c(NCc3nnc(-c4ccccc4)[nH]3)nc(N3CCCCC3)nc12 [Example 49, 8-bromo-N-[(5-phenyl-4H-1,2,4-triazol-3-yl)methyl]-2-(piperidin-1-yl)pyrazolo[1,5-a][1,3,5]triazin-4-amine] | 6120 | 69.2 | 44
11 | CCc1cnn2c(NCc3nc4ccccc4[nH]3)nc(N3CCN(C)CC3)nc12 [Example 434, N-[(1H-benzimidazol-2-yl)methyl]-8-ethyl-2-(4-methylpiperazin-1-yl)pyrazolo[1,5-a][1,3,5] triazin-4-amine] | > 17600 | 10.5 | 10.2
12 | CC1(C)CN(c2nc(NCc3nc4ccccc4[nH]3)n3ncc(Br)c3n2)CCO1 [Example 58, N-[(1H-benzimidazol-2-yl)methyl]-8-bromo-2-(2,2-dimethylmorpholin-4-yl)pyrazolo[1,5-a][1,3,5]triazin-4-amine] | 6440 | 49 | 56.3
13 | Cc1cnn2c(NCc3nc4c(F)c(F)ccc4[nH]3)nc(N3CCN(C)CC3)nc12 [Example 394, N-[(4,5-difluoro-1H-benzimidazol-2-yl)methyl]-8-methyl-2-(4-methylpiperazin-1-yl)pyrazolo[1,5-a][1,3,5]triazin-4-amine] | > 18700 | 11.4 | 4.32
14 | Fc1ccc2[nH]c(CNc3nc(N4CCOCC4)nc4c(CC(F)F)cnn34)nc2c1F.O=C(O)C(F)(F)F [Example 425, trifluoroacetic acid N-[(4,5-difluoro-1H-benzimidazol-2-yl)methyl]-8-(2,2-difluoroethyl)-2-(morpholin-4-yl)pyrazolo[1,5-a][1,3,5]triazin-4-amine] | 2140 | 2.68 | 3.06
15 | CCc1cnn2c(NCc3nc4c(F)c(F)ccc4[nH]3)nc(N3CCOCC3)nc12 [Example 432, N-[(4,5-difluoro-1H-benzimidazol-2-yl)methyl]-8-ethyl-2-(morpholin-4-yl)pyrazolo[1,5-a][1,3,5]triazin-4-amine] | 2300 | 1.76 | 3.66
16 | Brc1cnn2c(NCc3nnc(-c4ccccn4)[nH]3)nc(N3CCOCC3)nc12 [Example 54, 8-bromo-2-(morpholin-4-yl)-N-{[5-(pyridin-2-yl)-4H-1,2,4-triazol-3-yl]methyl}pyrazolo[1,5-a][1,3,5]triazin-4-amine] | 5650 | 66.2 | 53.8
17 | Brc1cnn2c(NCc3nnc(-c4cccnc4)[nH]3)nc(N3CCOCC3)nc12 [Example 53, 8-bromo-2-(morpholin-4-yl)-N-{[5-(pyridin-3-yl)-4H-1,2,4-triazol-3-yl]methyl}pyrazolo[1,5-a][1,3,5]triazin-4-amine] | 2030 | 77.1 | 106

Compounds with a lower IC50 (CDK12/CycK), results first:

Row | IC50 (CDK12/CycK) [nM] | IC50 [1] [nM] | IC50 [2] [nM] | SMILES
18 | 1860 | 45 | 44 | FC(F)(F)c1cnn2c(NCc3nnc(-c4ccccc4)[nH]3)nc(N3CCOCC3)nc12 [Example 427, 2-(morpholin-4-yl)-N-[(5-phenyl-4H-1,2,4-triazol-3-yl)methyl]-8-(trifluoromethyl)pyrazolo[1,5-a][1,3,5]triazin-4-amine]
19 | 1640 | 26 | 23.3 | FC(F)(F)c1cccc(-c2nnc(CNc3nc(N4CCOCC4)nc4c(Br)cnn34)[nH]2)c1 [Example 52, 8-bromo-2-(morpholin-4-yl)-N-({5-[3-(trifluoromethyl)phenyl]-4H-1,2,4-triazol-3-yl}methyl)pyrazolo[1,5-a][1,3,5]triazin-4-amine]
20 | 1580 | 3.42 | 3.07 | Fc1cccc2[nH]c(CNc3nc(N4CCN5CCC4CC5)nc4c(C(F)(F)F)cnn34)nc12 [Example 410, 2-(1,4-diazabicyclo[3.2.2]nonan-4-yl)-N-[(4-fluoro-1H-benzimidazol-2-yl)methyl]-8-(trifluoromethyl)pyrazolo[1,5-a][1,3,5]triazin-4-amine]
21 | 771 | 4.76 | 6.28 | N#Cc1cccc(-c2nnc(CNc3nc(N4CCOCC4)nc4c(Br)cnn34)[nH]2)c1 [Example 55, 3-[5-({[8-bromo-2-(morpholin-4-yl)pyrazolo[1,5-a][1,3,5]triazin-4-yl]amino}methyl)-4H-1,2,4-triazol-3-yl]benzonitrile]
22 | 706 | 1.6 | 0.927 | Fc1ccc2[nH]c(CNc3nc(N4CCN5CCC4CC5)nc4c(C(F)(F)F)cnn34)nc2c1F [Example 407, 2-(1,4-diazabicyclo[3.2.2]nonan-4-yl)-N-[(4,5-difluoro-1H-benzimidazol-2-yl)methyl]-8-(trifluoromethyl)pyrazolo[1,5-a][1,3,5]triazin-4-amine]
23 | 547 | 30.5 | 12.5 | OC[C@@H]1CCCCN1c1nc(NCc2nc3ccccc3[nH]2)n2ncc(Br)c2n1 [Example 59, [(2S)-1-(4-{[(1H-benzimidazol-2-yl)methyl]amino}-8-bromopyrazolo[1,5-a][1,3,5]triazin-2-yl)piperidin-2-yl]methanol]
24 | 406 | 3.4 | 1.76 | N#Cc1cccc(-c2c[nH]c(CNc3nc(N4CCOCC4)nc4c(Br)cnn34)n2)c1 [Example 42, 3-[2-({[8-bromo-2-(morpholin-4-yl)pyrazolo[1,5-a][1,3,5]triazin-4-yl]amino}methyl)-1H-imidazol-4-yl]benzonitrile]
25 | 224 | 3.81 | 7.85 | CN(CC(C)(C)O)c1nc(NCc2nc3c(F)c(F)ccc3[nH]2)n2ncc(C(F)(F)F)c2n1 [Example 402, 1-{[4-{[(4,5-difluoro-1H-benzimidazol-2-yl)methyl]amino}-8-(trifluoromethyl)pyrazolo[1,5-a][1,3,5]triazin-2-yl](methyl)amino}-2-methylpropan-2-ol]
